The values below come from ChEMBL document CHEMBL1132343, “Carboxylic acid analogues of tamoxifen: (Z)-2-[p-(1, 2-diphenyl-1-butenyl)phenoxy]-N,N-dimethylethylamine. Estrogen receptor affinity and estrogen antagonist effects in MCF-7 cells” (J Med Chem, 1999).

Experiment [1] relates to MCF7. Briefly: Inhibition of MCF-7 cell proliferation at 10000 nM. Format: functional, Homo sapiens.
Experiment [2] has as its target T1, Estrogen receptor (Homo sapiens, UniProt P03372).
T1 sequence (P03372 whole entry): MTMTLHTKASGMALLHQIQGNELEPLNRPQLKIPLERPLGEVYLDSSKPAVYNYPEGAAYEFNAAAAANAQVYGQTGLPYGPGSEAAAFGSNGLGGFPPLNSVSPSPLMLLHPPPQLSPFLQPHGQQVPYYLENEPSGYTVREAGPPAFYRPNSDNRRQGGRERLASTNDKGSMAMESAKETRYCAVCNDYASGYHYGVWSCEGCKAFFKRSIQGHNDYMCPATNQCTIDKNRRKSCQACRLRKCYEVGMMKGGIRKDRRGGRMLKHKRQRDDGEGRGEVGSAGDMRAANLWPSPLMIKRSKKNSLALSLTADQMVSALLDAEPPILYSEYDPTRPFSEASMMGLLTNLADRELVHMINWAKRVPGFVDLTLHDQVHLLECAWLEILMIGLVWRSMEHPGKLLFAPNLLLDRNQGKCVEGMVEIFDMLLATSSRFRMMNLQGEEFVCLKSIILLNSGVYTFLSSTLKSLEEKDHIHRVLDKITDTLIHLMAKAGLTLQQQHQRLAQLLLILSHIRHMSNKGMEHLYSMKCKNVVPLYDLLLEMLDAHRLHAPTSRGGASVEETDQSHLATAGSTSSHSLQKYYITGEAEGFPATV
Description: Displacement of [3H]17-beta-estradiol from human estrogen receptor alpha

Experiment [3] deals with MCF7. In words: Inhibition of MCF-7 cell proliferation at 100 nM. Format: functional, Homo sapiens.
In experiment [4] the test system is MCF7. In words: Inhibition of estrogen-induced MCF-7 cell proliferation at 10000 nM. In kind it is functional, Homo sapiens.
In experiment [5] the test system is MCF7. In words: Inhibition of MCF-7 cell proliferation at 10 nM. In kind it is functional, Homo sapiens.
Experiment [6] deals with MCF7. In words: Inhibition of MCF-7 cell proliferation at 1000 nM. Format: functional, Homo sapiens.

By IC50 is commonly meant the concentration that inhibits the measured activity by half. Consider `CC/C(=C(/c1ccc(O)cc1)c1cccc(OCC(=O)O)c1)c1ccccc1`, for which the Cell number in experiment [1] came to 100%. The IC50 in experiment [2] is above 11 nM.

Take `CC/C(=C(/c1ccc(OCC(=O)O)cc1)c1cccc(O)c1)c1ccccc1`: the Cell number in experiment [1] was determined as 52%; in experiment [3] it was 82%; in experiment [4], 78%; in experiment [5], 99%. Further, the midpoint of inhibition in experiment [2], the IC50, lay at 1440 nM.

`CC/C(=C(\c1ccc(O)cc1)c1ccc(OCC(=O)O)cc1)c1ccccc1`: the values for the Cell number in experiment [1] and in experiment [6] were 102% and 96%, respectively. For the same compound, in experiment [2], the half-inhibitory concentration (IC50) came out at 500 nM.

Regarding `O=C(O)CCCOc1ccc(/C(=C/CCc2ccccc2)c2ccc(O)cc2)cc1`, the Cell number in experiment [3] was found to be 25%; in experiment [4] it was 18%; in experiment [5], 74%; in experiment [6] it was 20%. Besides, the IC50 in experiment [2] amounted to 235 nM.

For `CC[C@](C)(c1ccccc1)[C@@H](c1ccc(O)cc1)c1ccc(OCCCC(=O)O)cc1`, the Cell number amounted to 68% in experiment [1], 99% in experiment [3] and 102% in experiment [6]. The same compound gave an IC50 in experiment [2] of 6000 nM.

For the compound `O=C(O)CCCOc1ccc(/C(=C/CCc2ccccc2)c2cccc(O)c2)cc1`, the Cell number was 19% in experiment [1], 91% in experiment [3], 50% in experiment [4] and 89% in experiment [5]. In experiment [2], this compound yielded a half-maximal inhibitory concentration (IC50) of 1700 nM.

Regarding `CC/C(=C(\c1ccccc1)c1ccc(OCCN(C)C)cc1)c1ccccc1` [TAMOXIFEN], the Cell number is 24% in experiment [1], 72% in experiment [3], 31% in experiment [4] and 97% in experiment [5].
